How the values were obtained:
[1] = system: MM cells; test: Transwell chemotaxis of CFSE-labeled MM cells toward BMSCs; type: cell-based; conditions: counted at 72 h
Text: BMSCs induce the migration and homing (chemotaxis) of MM cells to BM. […] MM cells were placed in the upper chamber separated from BMSCs in the lower chamber by a semi-permeable membrane. […] It appears that DT97 treatment prevents MM migration, in part, through the reduction of cytokine production.

[2] = system: PDGFR; test: Kinase inhibitory profile; type: biochemical; conditions: Other Clinically-relevant Kinases; 10-point concentration assays
[3] = target: p110-β (Homo sapiens, UniProt P42338); test: Kinase inhibitory profile / PIP3 production
p110-β, sequence (P42338 whole entry): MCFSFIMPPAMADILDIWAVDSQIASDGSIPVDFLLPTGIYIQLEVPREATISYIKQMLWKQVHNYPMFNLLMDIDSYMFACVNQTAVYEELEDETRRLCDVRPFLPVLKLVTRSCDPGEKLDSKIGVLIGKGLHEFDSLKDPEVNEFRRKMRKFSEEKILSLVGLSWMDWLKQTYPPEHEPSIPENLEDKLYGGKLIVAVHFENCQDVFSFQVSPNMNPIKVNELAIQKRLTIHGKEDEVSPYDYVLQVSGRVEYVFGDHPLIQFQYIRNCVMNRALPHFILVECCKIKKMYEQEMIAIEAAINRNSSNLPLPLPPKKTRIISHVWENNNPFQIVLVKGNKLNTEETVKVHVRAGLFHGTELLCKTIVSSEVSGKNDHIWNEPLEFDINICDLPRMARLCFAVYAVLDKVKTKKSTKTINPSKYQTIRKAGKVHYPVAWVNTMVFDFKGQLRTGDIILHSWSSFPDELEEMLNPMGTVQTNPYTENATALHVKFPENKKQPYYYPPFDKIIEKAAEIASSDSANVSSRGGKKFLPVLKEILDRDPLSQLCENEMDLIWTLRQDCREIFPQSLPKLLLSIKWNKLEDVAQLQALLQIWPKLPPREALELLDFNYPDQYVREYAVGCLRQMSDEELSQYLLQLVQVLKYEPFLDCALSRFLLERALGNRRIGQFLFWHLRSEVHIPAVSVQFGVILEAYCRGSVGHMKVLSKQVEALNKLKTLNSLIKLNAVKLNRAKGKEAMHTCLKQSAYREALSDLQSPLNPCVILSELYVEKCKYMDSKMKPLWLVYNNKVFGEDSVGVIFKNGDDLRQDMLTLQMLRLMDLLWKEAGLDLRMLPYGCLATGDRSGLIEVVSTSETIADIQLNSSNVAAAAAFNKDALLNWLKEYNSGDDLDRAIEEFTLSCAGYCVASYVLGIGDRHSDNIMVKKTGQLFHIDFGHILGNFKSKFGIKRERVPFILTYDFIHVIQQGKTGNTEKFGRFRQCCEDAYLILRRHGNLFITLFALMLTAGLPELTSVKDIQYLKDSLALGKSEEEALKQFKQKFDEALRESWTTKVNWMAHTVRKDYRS
p110-β, sequence (P27986 whole entry partner): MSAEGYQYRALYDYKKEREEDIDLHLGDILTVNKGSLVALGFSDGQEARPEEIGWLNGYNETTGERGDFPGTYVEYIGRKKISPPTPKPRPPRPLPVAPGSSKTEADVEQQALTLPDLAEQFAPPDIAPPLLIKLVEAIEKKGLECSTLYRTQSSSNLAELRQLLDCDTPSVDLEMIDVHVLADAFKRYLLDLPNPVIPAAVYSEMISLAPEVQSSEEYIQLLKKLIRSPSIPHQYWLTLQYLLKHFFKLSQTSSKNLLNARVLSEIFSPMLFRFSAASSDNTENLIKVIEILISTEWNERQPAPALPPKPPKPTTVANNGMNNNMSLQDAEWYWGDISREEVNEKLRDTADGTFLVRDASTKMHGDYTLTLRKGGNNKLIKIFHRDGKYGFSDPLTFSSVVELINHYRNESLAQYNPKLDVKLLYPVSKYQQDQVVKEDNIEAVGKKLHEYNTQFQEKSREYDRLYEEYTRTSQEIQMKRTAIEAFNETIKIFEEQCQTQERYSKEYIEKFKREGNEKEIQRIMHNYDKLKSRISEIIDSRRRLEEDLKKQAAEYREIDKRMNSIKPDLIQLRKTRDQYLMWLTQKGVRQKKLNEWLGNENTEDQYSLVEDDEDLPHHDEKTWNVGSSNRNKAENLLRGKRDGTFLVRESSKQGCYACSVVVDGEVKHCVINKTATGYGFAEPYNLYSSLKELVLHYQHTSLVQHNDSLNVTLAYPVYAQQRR
Procedure: To directly assess PI3K activity, PI3K was isolated by immunoprecipitation using an antibody to the p85 adapter subunit and the ability of the co-precipitated catalytic p110 subunit to convert PIP2 to PIP3 in a kinase reaction assessed by measuring the amount of PIP3 generated using a competitive ELISA [40, 41]. […] Lysates were centrifuged at 13,000 × rpm for 10 min and supernatants stored at −80°C. Frozen lysates were thawed and PI3K immunoprecipitated with 5 μl anti-PI3K p85 (Cell Signaling Technology, Danvers, MA) for 1 h at 4°C, followed by the addition of 60 μl of a 50% slurry of Protein A agarose beads for 1 h at 4°C. The immunoprecipitate was collected by centrifugation at 13,000 × rpm for 10 sec, washed 3 times in buffer A + 1% NP40, thrice with 0.1 M Tris-HCl, pH 7.4, 5 mM LiCl, 0.1 mM Na orthovanadate and twice with 10 mM Tris-HCl, pH 7.4, 150 mM NaCl, 5 mM ethylenediaminetetraacetic acid (EDTA), 0.1 mM Na orthovanadate. […] Reactions were incubated for 3 h at 37°C with 40 pmol PIP2 (Echelon Biosciences, Salt Lake City, UT). Reactions were stopped with EDTA (5 mM) and centrifuged at 13,000 × rpm at 4°C. Supernatants were transferred to a microtitre plate for a competitive ELISA (Echelon Biosciences) to quantify PIP3 generated. […] Absorbance was measured (450 nm) and PIP3 quantified using a standard curve generated with experimental samples and plotted on a log scale.

[4] = system: CXCR12; test: CXCL12/SDF-1 alpha ELISA, MM cells co-cultured with BMSCs; type: cell-based, human
[5] = system: KM12; test: NCI-60 panel cell growth screen; type: cell-based, human; conditions: KM12 (Colon cancer)
[6] = target: ERBB2 (Homo sapiens, UniProt P04626); test: Kinase inhibitory profile; type: biochemical; conditions: Other Clinically-relevant Kinases; 10-point concentration assays
[7] = system: SF-295; test: NCI-60 panel cell growth screen; type: cell-based, human; conditions: SF-295 (CNS Cancer)
[8] = system: Myeloma/ Leukemia/ Lymphoma; test: NCI-60 panel cell growth screen (Figure 6); type: cell-based, human
[9] = system: HCC-2998; test: NCI-60 panel cell growth screen; type: cell-based, human; conditions: HCC-2998 (Colon cancer)
[10] = system: peripheral blood mononuclear cells (PBMCs); test: Apoptosis (in situ cell death detection) in PBMCs; type: cell-based; conditions: Figure 5B
[11] = system: HCT-15; test: NCI-60 panel cell growth screen; type: cell-based, human; conditions: HCT-15 (Colon cancer)
[12] = target: DNA-PK (Homo sapiens, UniProt P78527); test: Kinase inhibitory profile; type: biochemical; conditions: Class IV PI3Ks; 10-point concentration assays
[13] = system: EKVX; test: NCI-60 panel cell growth screen; type: cell-based, human; conditions: EKVX (NSCLC)
[14] = system: U25; test: NCI-60 panel cell growth screen; type: cell-based, human; conditions: U25 (CNS Cancer)
[15] = target: p110-δ (Homo sapiens, UniProt O00329); test: Kinase inhibitory profile / PIP3 production; set-up: Inhibitory profile (kinase inhibition): key to the marks not given beside the values
p110-δ, sequence (O00329 whole entry): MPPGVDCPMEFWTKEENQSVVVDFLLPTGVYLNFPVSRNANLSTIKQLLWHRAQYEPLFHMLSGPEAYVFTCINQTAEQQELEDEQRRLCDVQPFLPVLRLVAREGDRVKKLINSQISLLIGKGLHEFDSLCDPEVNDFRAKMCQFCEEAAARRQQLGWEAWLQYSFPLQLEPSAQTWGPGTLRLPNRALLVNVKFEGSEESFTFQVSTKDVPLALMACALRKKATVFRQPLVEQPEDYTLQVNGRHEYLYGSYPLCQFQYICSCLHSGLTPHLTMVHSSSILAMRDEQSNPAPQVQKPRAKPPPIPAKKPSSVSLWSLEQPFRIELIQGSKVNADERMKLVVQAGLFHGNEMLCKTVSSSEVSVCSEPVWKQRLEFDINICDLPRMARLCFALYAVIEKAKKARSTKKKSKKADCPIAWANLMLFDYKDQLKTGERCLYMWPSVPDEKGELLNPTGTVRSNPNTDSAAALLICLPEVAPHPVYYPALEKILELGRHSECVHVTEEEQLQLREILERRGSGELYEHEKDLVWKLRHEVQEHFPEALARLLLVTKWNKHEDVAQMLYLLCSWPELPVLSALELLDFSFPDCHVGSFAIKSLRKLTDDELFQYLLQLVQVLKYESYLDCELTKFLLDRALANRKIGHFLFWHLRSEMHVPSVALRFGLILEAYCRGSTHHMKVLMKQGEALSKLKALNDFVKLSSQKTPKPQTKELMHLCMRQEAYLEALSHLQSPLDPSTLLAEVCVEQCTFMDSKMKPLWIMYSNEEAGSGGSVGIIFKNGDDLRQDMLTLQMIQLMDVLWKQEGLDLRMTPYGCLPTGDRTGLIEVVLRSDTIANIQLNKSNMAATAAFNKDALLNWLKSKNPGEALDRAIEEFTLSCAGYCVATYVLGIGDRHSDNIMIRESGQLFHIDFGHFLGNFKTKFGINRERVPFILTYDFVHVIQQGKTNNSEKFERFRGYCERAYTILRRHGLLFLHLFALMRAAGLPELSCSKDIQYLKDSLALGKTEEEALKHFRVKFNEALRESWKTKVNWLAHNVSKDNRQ
p110-δ, sequence (P27986 whole entry partner): as the sequence (P27986 whole entry partner) above

[16] = target: PKC2β (Homo sapiens, UniProt O00750); test: Kinase inhibitory profile; type: biochemical; conditions: Class II PI3Ks; 10-point concentration assays
PKC2β, sequence (O00750 whole entry): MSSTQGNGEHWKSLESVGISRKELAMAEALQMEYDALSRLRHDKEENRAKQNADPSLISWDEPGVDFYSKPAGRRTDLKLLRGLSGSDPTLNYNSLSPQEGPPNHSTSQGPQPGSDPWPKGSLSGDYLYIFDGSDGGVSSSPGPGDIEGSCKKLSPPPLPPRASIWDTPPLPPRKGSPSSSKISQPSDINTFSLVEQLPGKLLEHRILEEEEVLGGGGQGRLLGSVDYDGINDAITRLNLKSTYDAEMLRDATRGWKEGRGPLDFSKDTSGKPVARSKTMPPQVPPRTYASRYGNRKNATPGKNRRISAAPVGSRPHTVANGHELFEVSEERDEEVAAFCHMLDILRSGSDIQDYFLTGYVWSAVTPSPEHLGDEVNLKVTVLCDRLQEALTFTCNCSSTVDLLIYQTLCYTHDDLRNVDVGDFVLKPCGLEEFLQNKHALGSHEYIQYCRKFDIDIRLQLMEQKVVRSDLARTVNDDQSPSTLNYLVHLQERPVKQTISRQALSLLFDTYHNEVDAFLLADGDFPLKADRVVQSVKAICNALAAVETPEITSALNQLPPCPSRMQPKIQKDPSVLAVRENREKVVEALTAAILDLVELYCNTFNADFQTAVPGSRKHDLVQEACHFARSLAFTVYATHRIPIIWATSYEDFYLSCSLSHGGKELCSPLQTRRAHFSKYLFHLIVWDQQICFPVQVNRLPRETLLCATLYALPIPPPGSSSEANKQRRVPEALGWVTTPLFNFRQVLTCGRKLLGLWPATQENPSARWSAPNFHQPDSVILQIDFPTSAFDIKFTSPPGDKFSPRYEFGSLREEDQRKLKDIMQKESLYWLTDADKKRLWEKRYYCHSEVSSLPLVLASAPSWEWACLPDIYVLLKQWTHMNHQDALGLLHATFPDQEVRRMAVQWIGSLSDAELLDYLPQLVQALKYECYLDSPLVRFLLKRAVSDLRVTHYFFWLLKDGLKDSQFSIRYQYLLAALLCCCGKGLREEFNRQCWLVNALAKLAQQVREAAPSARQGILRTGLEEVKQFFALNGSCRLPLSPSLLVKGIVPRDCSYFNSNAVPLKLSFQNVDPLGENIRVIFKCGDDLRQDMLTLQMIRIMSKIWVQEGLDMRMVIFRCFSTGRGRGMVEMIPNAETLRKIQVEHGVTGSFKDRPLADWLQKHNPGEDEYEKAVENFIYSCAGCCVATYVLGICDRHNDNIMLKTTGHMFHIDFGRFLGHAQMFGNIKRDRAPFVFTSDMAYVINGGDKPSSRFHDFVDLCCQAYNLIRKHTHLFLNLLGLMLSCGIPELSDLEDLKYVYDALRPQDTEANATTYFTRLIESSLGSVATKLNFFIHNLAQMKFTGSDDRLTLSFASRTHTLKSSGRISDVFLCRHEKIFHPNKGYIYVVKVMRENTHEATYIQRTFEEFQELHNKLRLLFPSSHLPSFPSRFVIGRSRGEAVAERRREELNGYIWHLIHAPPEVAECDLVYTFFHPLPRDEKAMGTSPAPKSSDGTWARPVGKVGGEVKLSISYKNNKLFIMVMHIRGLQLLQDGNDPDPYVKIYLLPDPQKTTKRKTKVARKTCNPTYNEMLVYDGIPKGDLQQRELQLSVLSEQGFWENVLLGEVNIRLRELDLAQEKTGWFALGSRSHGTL

[17] = system: NCI-H23; test: NCI-60 panel cell growth screen; type: cell-based, human; conditions: NCI-H23 (NSCLC)
[18] = system: SW-620; test: NCI-60 panel cell growth screen; type: cell-based, human; conditions: SW-620 (Colon cancer)
[19] = system: HCT-116; test: NCI-60 panel cell growth screen; type: cell-based, human; conditions: HCT-116 (Colon cancer)
[20] = system: COLO205; test: NCI-60 panel cell growth screen; type: cell-based, human; conditions: COLO205 (Colon cancer)
[21] = system: MM cells; test: XTT viability, MM cells (DT97 vs idelalisib); type: cell-based; conditions: parental and drug-resistant MM cells; 1 uM; 72 h; XTT assay
Procedure: Values represent the average of triplicate measurements. […] Values represent the average of triplicate measurements. […] Values represent the average of triplicate measurements.
Cells were plated, treated as indicated for 72 h and 2, 3-bis-(2-methoxy-4-nitro-5-sulfophenyl)-2H-tetrazolium-5-carboxanilide) added (Sigma-Aldrich) after activation with N-methyl dibenzopyrazine methyl sulfate (Sigma-Aldrich). Absorbance was measured and the effect on myeloma viability determined as previously described. Assays were performed in triplicate and the mean and standard deviation determined. Relative cell viability (mean ± SD) was calculated compared to readings from untreated cells.

[22] = system: AMPK; test: Kinase inhibitory profile; type: biochemical; conditions: Other Clinically-relevant Kinases; 10-point concentration assays
[23] = Class I PI3Ks, 10-point concentration assays
[24] = read-out: LC50 (the source's name)

N-[4-hydroxy-3-(8-quinolinylthio)-1-naphthyl]benzenesulfonamide [DT97]
migration of MM cells into the lower chambers with BMSCs [1]: reduced the migration
Inhibitory profile (kinase inhibition) [2]: none
Inhibitory profile (kinase inhibition) [3, 23]: none
production of PIP3 (dose-dependent effect) ([3]; p110-β isoform, Figure 4B): no effect
production of CXCR12 [4]: induction was inhibited
GI50 [5]: 2030 nM
TGI [5]: 1.65E-5
Percent Growth ([5]; log concentration −4.0): −87%
Percent Growth ([5]; log concentration −5.0): 24%
Percent Growth ([5]; log concentration −6.0): 61%
Percent Growth ([5]; log concentration −7.0): 104%
Percent Growth ([5]; log concentration −8.0): 104%
CC50 [5, 24]: 46600 nM
Inhibitory profile (kinase inhibition) [6]: +
GI50 [7]: 2840 nM
TGI [7]: 1.50E-5
Percent Growth ([7]; log concentration −4.0): −78%
Percent Growth ([7]; log concentration −5.0): 17%
Percent Growth ([7]; log concentration −6.0): 78%
Percent Growth ([7]; log concentration −7.0): 94%
Percent Growth ([7]; log concentration −8.0): 92%
CC50 [7, 24]: 50700 nM
IC50 [8]: ~450 nM
GI50 [9]: 4770 nM
TGI [9]: 1.91E-5
Percent Growth ([9]; log concentration −4.0): −82%
Percent Growth ([9]; log concentration −5.0): 32%
Percent Growth ([9]; log concentration −6.0): 88%
Percent Growth ([9]; log concentration −7.0): 106%
Percent Growth ([9]; log concentration −8.0): 105%
CC50 [9, 24]: 52400 nM
apoptosis [10]: did not induce apoptosis
GI50 [11]: 464 nM
TGI [11]: 2.50E-6
Percent Growth ([11]; log concentration −4.0): −70%
Percent Growth ([11]; log concentration −5.0): −40%
Percent Growth ([11]; log concentration −6.0): 27%
Percent Growth ([11]; log concentration −7.0): 97%
Percent Growth ([11]; log concentration −8.0): 100%
CC50 [11, 24]: 21200 nM
Inhibitory profile (kinase inhibition) [12]: +
GI50 [13]: 1010 nM
TGI [13]: 8.55E-6
Percent Growth ([13]; log concentration −4.0): −99%
Percent Growth ([13]; log concentration −5.0): −4%
Percent Growth ([13]; log concentration −6.0): 50%
Percent Growth ([13]; log concentration −7.0): 93%
Percent Growth ([13]; log concentration −8.0): 97%
GI50 [14]: 780 nM
TGI [14]: 2.42E-5
Percent Growth ([14]; log concentration −4.0): −13%
Percent Growth ([14]; log concentration −5.0): 8%
Percent Growth ([14]; log concentration −6.0): 43%
Percent Growth ([14]; log concentration −7.0): 107%
Percent Growth ([14]; log concentration −8.0): 103%
CC50 [14, 24]: > 100000 nM
Inhibitory profile (kinase inhibition) [15, 23]: +++
production of PIP3 (dose-dependent effect) ([15]; p110-δ isoform, Figure 4B): most potently
Inhibitory profile (kinase inhibition) [16]: +
GI50 [17]: 1930 nM
TGI [17]: 1.28E-5
Percent Growth ([17]; log concentration −4.0): −58%
Percent Growth ([17]; log concentration −5.0): 7%
Percent Growth ([17]; log concentration −6.0): 67%
Percent Growth ([17]; log concentration −7.0): 102%
Percent Growth ([17]; log concentration −8.0): 98%
CC50 [17, 24]: 75900 nM
GI50 [18]: 1040 nM
TGI [18]: 1.16E-5
Percent Growth ([18]; log concentration −4.0): −49%
Percent Growth ([18]; log concentration −5.0): 3%
Percent Growth ([18]; log concentration −6.0): 51%
Percent Growth ([18]; log concentration −7.0): 88%
Percent Growth ([18]; log concentration −8.0): 94%
CC50 [18, 24]: > 100000 nM
GI50 [19]: 555 nM
TGI [19]: 2.80E-6
Percent Growth ([19]; log concentration −4.0): −92%
Percent Growth ([19]; log concentration −5.0): −43%
Percent Growth ([19]; log concentration −6.0): 34%
Percent Growth ([19]; log concentration −7.0): 95%
Percent Growth ([19]; log concentration −8.0): 98%
CC50 [19, 24]: 14100 nM
GI50 [20]: 1710 nM
TGI [20]: 3.70E-6
Percent Growth ([20]; log concentration −4.0): −59%
Percent Growth ([20]; log concentration −5.0): −64%
Percent Growth ([20]; log concentration −6.0): 85%
Percent Growth ([20]; log concentration −7.0): 99%
Percent Growth ([20]; log concentration −8.0): 94%
CC50 [20, 24]: 8030 nM
viability [21]: more potently than idelalisib
Inhibitory profile (kinase inhibition) [22]: +
